The nature of the data set: in vitro. The conditions noted are these: human, hela cells, % viability.

In general, viability refers to a read-out of living cells in per cent, often relative to untreated cells.

On to `CCOC(=O)N1CCN(c2cccc3[nH]c(C(=O)O)cc23)CC1` [CBK083477], for which the viability at 28.5 h, 10 µM was 93.9%.
In the case of `c1cc(OCCN2CCCC2)c2cc[nH]c2c1` [CBK083478] it was 101%.
Turning to `COc1ccc([C@@]23CC[C@@H](NC(=O)c4ccc(F)c(F)c4)C[C@@H]2CN(C)C3)cc1OC` [CBK083504T], the viability at 28.5 h, 10 µM came to 90.2%.
In the case of `COC(=O)N1CC2(CCCCC2NCc2c[nH]c(C)n2)c2ccccc21` (stereo not drawn) [CBK083547T] it was 108%; in that of `CC1=NN(c2ccccc2)C(=O)C1C(=O)c1ccccc1` (stereo not drawn) [CBK083564], 99.3%.
The value for `COc1ccc(OC(=O)c2ccc3ncccc3c2)cc1` [CBK083572] was 96.3%; that for `COc1ccc(OC(=O)c2csc(Cc3c(Cl)cccc3Cl)n2)cc1` [CBK083573] was 95.7%.
For the compound `Brc1ccc2[nH]c3c(c2c1)CCNC31CCN(CCOc2ccccc2)C1` (stereo not drawn) [CBK083578], the viability at 28.5 h, 10 µM was determined as 75.5%.
For the compound `Cc1cc(OC(=O)C2CCC(CNC(=O)OC(C)(C)C)CC2)c2c3c(c(=O)oc2c1)CCC3` (stereo not drawn) [CBK083583], the viability at 28.5 h, 10 µM is 103%.
As to `Cc1cc(OC(=O)C2CCC(CNC(=O)OC(C)(C)C)CC2)c2c3c(c(=O)oc2c1)CCCC3` (stereo not drawn) [CBK083590], the viability at 28.5 h, 10 µM is 102%.
With `Clc1nccnc1N1CCCC1` [CBK083594], the viability at 28.5 h, 10 µM turned out to be 101%.
The value for `Clc1cncc(N2CCCC2)n1` [CBK083595] was 118%.
In the case of `Clc1nc2ccccc2nc1N1CCCC1` [CBK083596] it was 101%; in that of `Clc1cc(N2CCCC2)ncn1` [CBK083597], 99.2%; in that of `c1nc(OCCN2CCOCC2)cc(N2CCCN(CCN3CCOCC3)CC2)n1` [CBK083647], 103%.
The value for `COc1ccc(C(NC(=O)NNC(=O)CCC(=O)c2ccc(F)cc2)c2ccccc2C)cn1` (stereo not drawn) [CBK083659] was 99%; that for `Nc1c(-c2ccc3c(c2)CCO3)cnc2ncccc12` [CBK083678] was 96%.
On to `CCCCc1ccc(-c2cnc3ncccc3c2N)cc1` [CBK083683], for which the viability at 28.5 h, 10 µM came out at 96.2%.
In the case of `CC(C)(C)c1ccc(-c2cnc3ncccc3c2N)cc1` [CBK083684] it was 99.9%; in that of `CS(=O)(=O)c1ccc(-c2cnc3ncccc3c2N)cc1` [CBK083687], 97.5%.
Regarding `Nc1c(-c2ccsc2)cnc2ncccc12` [CBK083707], the viability at 28.5 h, 10 µM was 108%.
As for `CC(C)C(=O)Nc1c(-c2ccsc2)cnc2ncccc12` [CBK083714], the viability at 28.5 h, 10 µM was determined as 88.7%.
Take `CCNC(=O)Nc1ccc(-c2ccncc2)c2ccccc12` [CBK083720]: the viability at 28.5 h, 10 µM came out at 88.8%.
In the case of `CCNC(=O)Nc1ccc(-c2ccc(SC)cc2)c2ccccc12` [CBK083723] it was 90.4%.
As for `CCNC(=O)Nc1ccc(-c2ccc3c(c2)OCCCO3)c2ccccc12` [CBK083726], the viability at 28.5 h, 10 µM amounted to 89.4%.
`CCNC(=O)Nc1ccc(-c2ccc(S(C)(=O)=O)cc2)c2ccccc12` [CBK083728]: the viability at 28.5 h, 10 µM was determined as 88.1%.
`CS(=O)(=O)Nc1ccc(-c2cccc(C(F)(F)F)c2)c2ccccc12` [CBK083746]: the viability at 28.5 h, 10 µM stood at 95.4%.
For the compound `O=C1NC2(CCNCC2)Oc2ccc(-c3cccc4ncccc34)cc21` [CBK083775T], the viability at 28.5 h, 10 µM was determined as 95.3%.
As for `Clc1ccc(COc2cc(N3CCCN(Cc4ccccc4-c4ccccc4)CC3)ncn2)cc1Cl` [CBK083781T], the viability at 28.5 h, 10 µM was 98.4%.
Take `CCN1CCCN(c2cc(OCc3ccc(Cl)c(Cl)c3)ncn2)CC1` [CBK083786]: the viability at 28.5 h, 10 µM was found to be 92.3%.
As for `NC(=O)CN1CCCN(c2ccnc(OCCN3CCOCC3)n2)CC1` [CBK083804], the viability at 28.5 h, 10 µM is 89.9%.
On to `c1ccc(CCN2CCCN(c3ccnc(OCCN4CCOCC4)n3)CC2)nc1` [CBK083813], for which the viability at 28.5 h, 10 µM was found to be 94.9%.
As to `COc1ccc(CN2CCCN(c3nccc(OCc4cc(C)on4)n3)CC2)cc1` [CBK083911], the viability at 28.5 h, 10 µM stood at 100%.

The values are drawn from article PMC12040169 (PLOS Biology, 2025).
